# Measurements reported in patent US9469611B2, “Use of dihydroimidazolones for the treatment of dogs” (BOEHRINGER INGELHEIM VETMEDICA GMBH, priority 2002, dated 2016).
# Values joined by “and” are separate entries in the source; they are usually repeats but may differ in a detail not shown here. Equal entries are not always repeated. Where two headings read alike, the source gives them in different places. Marks after values point to notes of the source that are not given here.
# What was measured:
# [1] = system: dogs with chronic idiopathic epilepsy; assay: add-on therapy in dogs with chronic idiopathic epilepsy not responding to phenobarbital or primidone; assay type: in vivo, dog
# [2] = plasma concentration of AWD 131-138 (HPLC/mass spectrometry); assay type: in vivo, dog; settings: for concentration at 12 h: 12 hours after application
# Experimental: A pharmacokinetic study was performed at the beginning of treatment in 2 dogs with AWD 131-138 monotherapy and in 4 dogs with a combination therapy of AWD 131-138 and phenobarbital or primidone. All 6 dogs received 5 mg/kg bodyweight AWD 131-138. Blood was taken 3 times every 2 hours. […] The same method was used as a compliance control during the follow up examinations. Blood was taken two and twelve hours after oral administration of AWD 131-138.
# In six dogs entering the pilot study with AWD 131-138 a pharmacokinetic study was performed. AWD 131-138 was measured in plasma samples two, four and six hours after application. The initial dosage of AWD 131-138 was 5 mg/kg bodyweight p.o. in all cases.
# [3] = system: chemically induced seizure threshold; settings: dogs, cited from earlier work
# [4] = system: benzodiazepine binding site of the GABAA receptor; settings: broad receptor screen; cited from earlier work
# [5] = system: cloned human GABA receptor complexes; settings: cited from earlier work
# [6] = system: benzodiazepine receptor; settings: co administration of flumazenil; cited from earlier work
# [7] = monkeys; cited from earlier work
# [8] = self administration paradigm; cited from earlier work
# [9] = system: calcium channel; settings: cited from earlier work
# [10] = side effects: owner questionnaire and follow up examinations with blood work
# [11] = system: dogs with newly diagnosed idiopathic epilepsy; assay: monotherapy in dogs with newly diagnosed idiopathic epilepsy (AWD 131-138 pilot study; retrospective phenobarbital, primidone)
# [12] = grand mal seizures, add-on to phenobarbital or primidone
# [13] = grand mal seizures, on phenobarbital or primidone before add-on
# [14] = median, on phenobarbital/primidone before add-on
# [15] = 12 newly diagnosed dogs, monotherapy
# [16] = add-on, abnormalities already at the beginning of the study
# [17] = grand mal seizures, baseline before monotherapy
# [18] = grand mal seizures, monotherapy
# [19] = median group value, baseline before monotherapy
# [20] = median group value, monotherapy, asterisk = P<0.05 vs before
smiles,measurement,setting,value
"O=C1N=C(N2CCOCC2)CN1c1ccc(Cl)cc1 [AWD 131-138, 1-(4-chlorophenyl)-4-(4-morpholinyl)-2,5-dihydro-1H-imidazol-2-one]",comparison of antiepileptic efficacy between the two add on treatment schedules,[1]; Fisher's exact test,did not indicate any significant difference
same,"decrease of number of seizures per cluster, mean",[1]; add-on,39.5%
same,dogs in which clusters did not occur anymore,[1]; add-on,three
same,dogs in which focal seizures replaced grand mal seizures partially,[1]; add-on,nine
same,dogs with a seizure reduction under 50%,[1]; add-on,4
same,dogs with decreased number of seizures per cluster,[1]; add-on,4
same,dogs with worsening of seizure severity reported by owner,[1]; add-on,One
same,number of dogs with decreased duration of the ictus,[1]; add-on,3
same,number of dogs with shortened postictal phase,[1]; add-on,ten
same,owners reporting subjectively a decrease of seizure severity,[1]; add-on,eight of seventeen
same,"postictal phase during treatment, mean",[1]; add-on,5.5 h
same,dogs that died or were euthanized in status epilepticus,[1]; add-on to phenobarbital or primidone,Nine
same,"shortening of the postictal phase, mean","[1]; add-on, in the dogs with shortening",54%
same,"duration of the ictus during treatment, median",[1]; [12],2.0 min
same,"duration of the ictus during treatment, time range",[1]; [12],0.5 to 5 min
same,"duration of the ictus before treatment, median",[1]; [13],2.0 min
same,"duration of the ictus before treatment, time range",[1]; [13],0.5 to 10 min
same,% reduction of seizures in responders,"[1]; mean ± SEM, add-on to phenobarbital/primidone",47.2 ± 8.8%
same,"Seizure frequency during treatment, all dogs","[1]; median, add-on to phenobarbital/primidone",2.0 seizures/month
same,"Seizure frequency during treatment, without nonresponders","[1]; median, add-on to phenobarbital/primidone, asterisk = P<0.05",1.1* seizures/month
same,"Seizure frequency before treatment, all dogs",[1]; [14],1.9 seizures/month
same,"Seizure frequency before treatment, without nonresponders",[1]; [14],2.4 seizures/month
same,AWD 131-138 plasma concentration,"[2]; 2 hours after 5 mg/kg p.o., AWD 131-138 monotherapy, individual dogs",720.0 ng/mL and 2579.2 ng/mL
same,AWD 131-138 plasma concentration,"[2]; 2 hours after 5 mg/kg p.o., phenobarbital combination therapy, individual dogs",23.27 ng/mL and 1019.5 ng/mL
same,AWD 131-138 plasma concentration,"[2]; 2 hours after 5 mg/kg p.o., primidone combination therapy, individual dogs",2392.3 ng/mL
same,AWD 131-138 plasma concentration,"[2]; 4 hours after 5 mg/kg p.o., AWD 131-138 monotherapy, individual dogs",702.7 ng/mL and 1461.0 ng/mL
same,AWD 131-138 plasma concentration,"[2]; 4 hours after 5 mg/kg p.o., phenobarbital combination therapy, individual dogs",Bld
same,AWD 131-138 plasma concentration,"[2]; 4 hours after 5 mg/kg p.o., primidone combination therapy, individual dogs",1021.5 ng/mL and 2438.7 ng/mL
same,AWD 131-138 plasma concentration,"[2]; 6 hours after 5 mg/kg p.o., AWD 131-138 monotherapy, individual dogs",229.5 ng/mL and 709.0 ng/mL
same,AWD 131-138 plasma concentration,"[2]; 6 hours after 5 mg/kg p.o., phenobarbital combination therapy, individual dogs",bld (bld (below limit of detection): <2 ng/mL)
same,AWD 131-138 plasma concentration,"[2]; 6 hours after 5 mg/kg p.o., primidone combination therapy, individual dogs",448.1 ng/mL and 1289.0 ng/mL
same,concentration at 2 h,"[2]; dog, plasma, oral, 5 mg/kg bodyweight, 2 hours after 5 mg/kg p.o., primidone combination therapy, individual dogs, read-out: AWD 131-138 plasma concentration",1520 ng/mL
same,concentration at 4 h,"[2]; dog, plasma, oral, 5 mg/kg bodyweight, 4 hours after 5 mg/kg p.o., phenobarbital combination therapy, individual dogs",174 ng/mL
same,concentration at 6 h,"[2]; dog, plasma, oral, 5 mg/kg bodyweight, 6 hours after 5 mg/kg p.o., phenobarbital combination therapy, individual dogs",19.5 ng/mL
same,concentration at 2 h,"[2]; dog, plasma, oral, 30 mg/kg, 2 hours after application, 30 mg/kg, non responder dog that died in status epilepticus, read-out: AWD 131-138 plasma concentration",4000 ng/mL
same,concentration at 2 h,"[2]; dog, plasma, oral, 40 mg/kg/day, 2 hours after application, 40 mg/kg per day, two dogs with ataxia on combined phenobarbital treatment, read-out: AWD 131-138 plasma concentration, range",5560 to 10900 ng/mL
same,concentration at 2 h,"[2]; dog, plasma, oral, chronic epilepsy add on, 2 hours after application, 10-15 mg/kg twice a day, seventeen dogs, read-out: AWD 131-138 plasma concentration, range",280 to 10600 ng/mL
same,concentration at 2 h,"[2]; dog, plasma, oral, chronic epilepsy add on, 2 hours after application, read-out: AWD 131-138 plasma concentration, mean",3900 ng/mL
same,concentration at 2 h,"[2]; dog, plasma, oral, chronic epilepsy add on, 2 hours after application, read-out: AWD 131-138 plasma concentration, median",2990 ng/mL
same,concentration at 12 h,"[2]; dog, plasma, oral, chronic epilepsy add on, read-out: AWD 131-138 plasma concentration, mean",644 ng/mL
same,concentration at 12 h,"[2]; dog, plasma, oral, chronic epilepsy add on, read-out: AWD 131-138 plasma concentration, median",179 ng/mL
same,concentration at 12 h,"[2]; dog, plasma, oral, chronic epilepsy add on, read-out: AWD 131-138 plasma concentration, range",7.57 to 5870 ng/mL
same,concentration at 2 h,"[2]; dog, plasma, oral, newly diagnosed dogs, three weeks of treatment, 2 hours after oral application, 10-20 mg/kg twice a day, eleven cases, read-out: AWD 131-138 plasma concentration, range",53.3 to 8620 ng/mL
same,concentration at 12 h,"[2]; dog, plasma, oral, newly diagnosed dogs, three weeks, twelve dogs, read-out: AWD 131-138 plasma concentration, range",5.4 to 1140 ng/mL
same,concentration at 12 h,"[2]; dog, plasma, oral, newly diagnosed dogs, three weeks, read-out: AWD 131-138 plasma concentration, mean",378 ng/mL
same,concentration at 12 h,"[2]; dog, plasma, oral, newly diagnosed dogs, three weeks, read-out: AWD 131-138 plasma concentration, median",218 ng/mL
same,concentration at 2 h,"[2]; dog, plasma, po, newly diagnosed dogs, three weeks, 2 hours after oral application, read-out: AWD 131-138 plasma concentration, mean",3360 ng/mL
same,concentration at 2 h,"[2]; dog, plasma, po, newly diagnosed dogs, three weeks, 2 hours after oral application, read-out: AWD 131-138 plasma concentration, median",2580 ng/mL
same,increase of seizure threshold (PTZ convulsive threshold),[3]; 20 mg/kg p.o.,39%
same,increase of seizure threshold (PTZ convulsive threshold),[3]; 40 mg/kg p.o.,118%
same,affinity for the benzodiazepine binding site,[4],very low affinity
same,mode of action at the benzodiazepine receptor,[5]; different cloned human GABA receptor complexes,low affinity partial agonist at the benzodiazepine receptor without subtype selectivity
same,maximal stimulation,[5]; of the effect of diazepam,20%
same,antagonism of anticonvulsive activity by flumazenil,[6],partly antagonised
same,antagonism of anxiolytic activity by flumazenil,[6],fully antagonised
same,identified as benzodiazepine like,[7],did not identify AWD 131-138 as benzodiazepine like
same,substitution for cocaine,[8],did not substitute for cocaine
same,calcium channel blocking effect,[9],weak calcium channel blocking effect
same,sedation,[10]; [15],no sedation occurred
same,tolerability,[10]; [15],exceptionally well tolerated
same,hematology and blood chemistry,"[10]; 12 newly diagnosed dogs, monotherapy, follow up",No abnormalities were found
same,"polyphagia, cases","[10]; 12 newly diagnosed dogs, monotherapy, in 4 dogs only at the beginning",7 (58%)
same,tolerability,"[10]; 17 dogs with chronic epilepsy, add-on",very well tolerated
same,"hematology (red, white and differential cell count)","[10]; 17 dogs with chronic epilepsy, add-on, follow up",No abnormalities were found
same,"polyphagia, cases","[10]; 17 dogs with chronic epilepsy, add-on, in 7 dogs only at the beginning",10 (59%)
same,"elevation of liver enzymes (ALT, GLDH and AP)",[10]; AWD 131-138 monotherapy,not observed
same,dogs with ataxia in the hind limbs and apathy 2 4 hours after application,"[10]; add-on, 40 mg/kg per day, combined phenobarbital with serum concentrations 56.6 58.9 μg/mL",Two
same,dogs with elevation of ALT,[10]; [16],1
same,dogs with elevation of AP,[10]; [16],6
same,dogs with elevation of GLDH,[10]; [16],3
same,comparison of antiepileptic efficacy between monotherapy treatment groups,[11]; ANOVA,did not indicate any significant differences
same,"duration of the ictus before treatment, median",[11]; [17],3.0 min
same,"duration of the ictus before treatment, time range",[11]; [17],0.5 to 10 min
same,"duration of the ictus during treatment, median",[11]; [18],2.5 min
same,"duration of the ictus during treatment, time range",[11]; [18],0.5 to 10 min
same,% reduction of seizures in responders,"[11]; mean ± SEM, monotherapy",49.8 ± 11.3%
same,"Seizure frequency before treatment, all dogs",[11]; [19],1.6 seizures/month
same,"Seizure frequency before treatment, without nonresponders",[11]; [19],1.7 seizures/month
same,"Seizure frequency during treatment, all dogs",[11]; [20],0.71 seizures/month
same,"Seizure frequency during treatment, without nonresponders",[11]; [20],0.55* seizures/month
same,dogs that died or were euthanized in status epilepticus,[11]; monotherapy,One
same,dogs with focal seizures instead of grand mal seizures during treatment,[11]; monotherapy,two
same,dogs with reduced seizure number per cluster,[11]; monotherapy,4
same,number of dogs with decreased duration of the ictus,[11]; monotherapy,five
same,number of dogs with shortened postictal phase,[11]; monotherapy,four
same,owners reporting subjectively a decrease of seizure severity,[11]; monotherapy,nine of 12
same,"reduction of seizure number per cluster, mean",[11]; monotherapy,45.3%
same,dogs in which clusters no longer developed,"[11]; monotherapy, dogs with clusters before treatment",One
same,"decrease of the duration of the ictus, mean","[11]; monotherapy, in the dogs with a decrease",38%
